Experiment: in vitro
Conditions: human

CN1CCCC1c1cccnc1 (stereo not shown) [HBSS with nicotine, nicotine]
Papp: 8.5 ×10⁻⁶ cm/s
